Reference: patent US10975068B2, “6-aminopyridin-3-yl thiazoles as modulators of RORγT” (Janssen Pharmaceutica NV, priority 2016, dated 2021)
Like-named read-outs stand apart in the source and are kept apart here.

Experiments:
[1] = target: human RORγt ligand binding domain (RORγt LBD) (Homo sapiens (Human), UniProt P51449); assay: RORγt ThermoFluor® assay (thermal shift binding); conditions: read-out: ThermoFluor® Assay, Kd
Method in brief: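 Binding was inferred from thermal stabilisation (ΔTm) of the E. coli-expressed RORγt LBD (0.065 mg/mL), monitored by 1,8-ANS (60 μM) emission at 500 nm during a 1 °C/min ramp. Buffer was Hepes 100 mM pH 7.0 with NaCl, GSH and Tween-20.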

full-length human RORγt = full-length human RORγt (Homo sapiens (Human), UniProt P51449); assay: RORγt (full-length human) reporter assay, Conditions A; type: cell-based; conditions: for IC50: read-out: RORγt (FL) Reporter Assay A, IC50; for RORγt (FL) Reporter Assay A, % inhibition (value marked **): marked **: footnote not shown; for inhibition at 6 µM: read-out: RORγt (FL) Reporter Assay A, % inhibition @ 6 μM
Description: RORγt (Full-Length Human) Reporter Assay:
Cells used in this assay were transiently co-transfected with three different plasmids, one expressing the GAL4-DNA binding domain (DBD)-RORγt fusion protein under control of a CMV promoter (NH2-Gal4-DBD:RORC-COOH in pCMV-BD, Stratagene #211342), and two reporter plasmids—the firefly luciferase reporter under control of a GAL4 promoter (pFR-Luc 2×GAL4) and Renilla luciferase reporter under control of CMV promoter (pRL-CMV, Promega # E2261). The full-length coding sequence was used for human RORγt, i.e., nucleotides 142-1635 of human RORγt, transcript variant 2, NCBI Accession: NM_001001523.1 (SEQ ID NO:1). HEK293T cells were plated at 35000 per well in 96-well plate in medium of MEM with 8.6% FBS. After 18-22 hours incubation, the transfection was carried out by using a PEI solution with 170.5 ng total DNA/well (50 ng pCMV-BD-ROR plus 20 ng of pFR-Luc reporter and 0.5 ng of pRL-CMV reporter plus 100 ng Carrier DNA (Clontech #630440) for each well). 4-6 hours after transfection, cells were treated with compounds for overnight in the medium with final concentration of FBS 1.1% and DMSO 0.1%. After overnight (16 to 20 hours) incubation, media were removed and cells were lysed with 20 μL 1× Passive Lysis Buffer (Promega) for 10-15 minutes. Luminescence was measured using a BMG LUMIstar OPTIMA plate reader, after addition of 75 μL/well firefly luciferase buffer, followed by 75 μL/well Renilla luciferase buffer. To calculate the effect of compounds on RORγt activity, firefly values were normalized against values of DMSO only and values of reference compound at saturating concentration, then further normalized against Renilla signals. IC50s were generated by plotting final Renilla normalized data against compound concentration and percent inhibition was calculated against DMSO control.

human RORγt ligand binding domain (RORγt LBD), sequence (P51449 other isoform, or with tags, fused parts or gaps): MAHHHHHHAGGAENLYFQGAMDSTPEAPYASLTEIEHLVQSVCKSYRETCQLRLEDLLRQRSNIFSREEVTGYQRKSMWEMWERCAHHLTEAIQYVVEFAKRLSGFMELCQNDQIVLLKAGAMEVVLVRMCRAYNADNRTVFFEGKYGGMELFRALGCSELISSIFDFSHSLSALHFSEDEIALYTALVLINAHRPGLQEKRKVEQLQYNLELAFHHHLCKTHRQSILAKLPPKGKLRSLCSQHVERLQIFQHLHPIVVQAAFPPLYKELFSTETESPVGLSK
full-length human RORγt, sequence (P51449 other isoform, or with tags, fused parts or gaps): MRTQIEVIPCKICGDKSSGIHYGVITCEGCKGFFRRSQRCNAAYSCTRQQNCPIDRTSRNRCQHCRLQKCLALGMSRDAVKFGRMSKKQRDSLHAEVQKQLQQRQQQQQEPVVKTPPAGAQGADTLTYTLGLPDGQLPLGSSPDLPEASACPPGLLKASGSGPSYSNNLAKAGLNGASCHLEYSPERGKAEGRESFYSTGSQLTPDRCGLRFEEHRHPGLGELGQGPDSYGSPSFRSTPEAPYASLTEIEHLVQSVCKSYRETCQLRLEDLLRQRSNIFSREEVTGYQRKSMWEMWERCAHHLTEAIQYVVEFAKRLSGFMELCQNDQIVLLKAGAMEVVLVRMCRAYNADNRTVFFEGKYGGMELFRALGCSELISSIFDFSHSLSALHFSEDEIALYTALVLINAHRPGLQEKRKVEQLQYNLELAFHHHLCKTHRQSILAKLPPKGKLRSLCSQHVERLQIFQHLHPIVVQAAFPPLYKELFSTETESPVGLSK

CC(C)S(=O)(=O)Nc1cc(C(F)(F)F)c(-c2sc(C(=O)NCC(C)(C)O)nc2C(=O)N2CCC(F)CC2)cn1 [Comparator Example 3, 4-(4-Fluoropiperidine-1-carbonyl)-N-(2-hydroxy-2-methylpropyl)-5-(6-((1-methylethyl)sulfonamido)-4-(trifluoromethyl)pyridin-3-yl)thiazole-2-carboxamide, reference compound]
Kd [1]: 53000 nM | IC50 (full-length human RORγt; HEK293T cells): > 6000 nM

CC(C)(O)CNC(=O)c1nc(C(=O)N2CCC(F)CC2)c(-c2cnc(NC3CCCC(F)(F)C3)c(C(F)(F)F)c2)s1 (centres unmarked) [Example 13, 5-(6-((3,3-Difluorocyclohexyl)amino)-5-(trifluoromethyl)pyridin-3-yl)-4-(4-fluoropiperidine-1-carbonyl)-N-(2-hydroxy-2-methylpropyl)thiazole-2-carboxamide]
Kd [1]: 37 nM | RORγt (FL) Reporter Assay A, % inhibition (value marked **) (full-length human RORγt; Conditions A): 99** % | IC50 (full-length human RORγt; Conditions A): 100 nM

CC(C)(O)CNC(=O)c1nc(C(=O)N2CCC(F)CC2)c(-c2cnc(NC3CCC(F)(F)C3)cc2C(F)(F)F)s1 (centres unmarked) [Example 20, 5-(6-((3,3-Difluorocyclopentyl)amino)-4-(trifluoromethyl)pyridin-3-yl)-4-(4-fluoropiperidine-1-carbonyl)-N-(2-hydroxy-2-methylpropyl)thiazole-2-carboxamide]
Kd [1]: 52 nM | IC50 (full-length human RORγt; Conditions A): 200 nM | inhibition at 6 µM (full-length human RORγt; Conditions A): 110%

CC(C)(O)CNC(=O)c1nc(C(=O)N2CCC(F)CC2)c(-c2cnc(NC3CCCCC3)cc2C#N)s1 [Example 57, 5-(4-Cyano-6-(cyclohexylamino)pyridin-3-yl)-4-(4-fluoropiperidine-1-carbonyl)-N-(2-hydroxy-2-methylpropyl)thiazole-2-carboxamide]
Kd [1]: 79 nM | IC50 (full-length human RORγt; Conditions A): 78 nM | inhibition at 6 µM (full-length human RORγt; Conditions A): 106%

C[C@H]1CC(F)(F)CN1C(=O)c1nc(C(=O)NCC(C)(C)O)sc1-c1cnc(NC2CCCCC2)cc1C(F)(F)F [Example 11, (S)-5-(6-(Cyclohexylamino)-4-(trifluoromethyl)pyridin-3-yl)-4-(4,4-difluoro-2-methylpyrrolidine-1-carbonyl)-N-(2-hydroxy-2-methylpropyl)thiazole-2-carboxamide]
Kd [1]: 2.6 nM | RORγt (FL) Reporter Assay A, % inhibition (value marked **) (full-length human RORγt; Conditions A): 107** % | IC50 (full-length human RORγt; Conditions A): 17 nM

CC(C)(O)CNC(=O)c1nc(C(=O)N2CCC(F)CC2)c(-c2cnc(NC3CC4(C3)CC(F)(F)C4)cc2C(F)(F)F)s1 [Example 22, 5-(6-((6,6-Difluorospiro[3.3]heptan-2-yl)amino)-4-(trifluoromethyl)pyridin-3-yl)-4-(4-fluoropiperidine-1-carbonyl)-N-(2-hydroxy-2-methylpropyl)thiazole-2-carboxamide]
Kd [1]: 440 nM | IC50 (full-length human RORγt; Conditions A): 910 nM | inhibition at 6 µM (full-length human RORγt; Conditions A): 84%

C[C@H]1CCCCN1C(=O)c1nc(C(=O)NCC(C)(C)O)sc1-c1cnc(NC2CCCCC2)c(C(F)(F)F)c1 [Example 4, (S)-5-(6-(Cyclohexylamino)-5-(trifluoromethyl)pyridin-3-yl)-N-(2-hydroxy-2-methylpropyl)-4-(2-methylpiperidine-1-carbonyl)thiazole-2-carboxamide]
Kd [1]: 0.98 nM | IC50 (full-length human RORγt; Conditions A): 9 nM | inhibition at 6 µM (full-length human RORγt; Conditions A): 106%

Cc1c(-c2sc(C(=O)NCC(C)(C)O)nc2C(=O)N2CCC(F)CC2)cnc(NC2CCCCC2)c1F [Example 66, 5-(6-(Cyclohexylamino)-5-fluoro-4-methylpyridin-3-yl)-4-(4-fluoropiperidine-1-carbonyl)-N-(2-hydroxy-2-methylpropyl)thiazole-2-carboxamide]
Kd [1]: 41 nM | IC50 (full-length human RORγt; Conditions A): 150 nM | inhibition at 6 µM (full-length human RORγt; Conditions A): 85%

CC(C)(O)CNC(=O)c1nc(C(=O)N2CCC(F)CC2)c(-c2cnc(NC3CCCCC3)c(C(F)F)c2)s1 [Example 6, 5-(6-(Cyclohexylamino)-5-(difluoromethyl)pyridin-3-yl)-4-(4-fluoropiperidine-1-carbonyl)-N-(2-hydroxy-2-methylpropyl)thiazole-2-carboxamide]
Kd [1]: ~10 nM | IC50 (full-length human RORγt; Conditions A): 160 nM | inhibition at 6 µM (full-length human RORγt; Conditions A): 110%

CC(C)(O)CNC(=O)c1nc(C(=O)N2CCC(F)CC2)c(-c2cnc(NCCC(F)(F)F)cc2C(F)(F)F)s1 [Example 8, 4-(4-Fluoropiperidine-1-carbonyl)-N-(2-hydroxy-2-methylpropyl)-5-(4-(trifluoromethyl)-6-((3,3,3-trifluoropropyl)amino)pyridin-3-yl)thiazole-2-carboxamide]
Kd [1]: 120 nM | IC50 (full-length human RORγt; Conditions A): 340 nM | inhibition at 6 µM (full-length human RORγt; Conditions A): 95%

C[C@H]1CCCCN1C(=O)c1nc(C(=O)NC2CCS(=O)(=O)CC2)sc1-c1cnc(NC2CCCCC2)cc1C(F)(F)F [Example 17, (S)-5-(6-(Cyclohexylamino)-4-(trifluoromethyl)pyridin-3-yl)-N-(1,1-dioxidotetrahydro-2H-thiopyran-4-yl)-4-(2-methylpiperidine-1-carbonyl)thiazole-2-carboxamide]
Kd [1]: 0.15 nM | RORγt (FL) Reporter Assay A, % inhibition (value marked **) (full-length human RORγt; Conditions A): 95** % | IC50 (full-length human RORγt; Conditions A): 9 nM

CC(C)(O)CNC(=O)c1nc(C(=O)N2CCC(F)CC2)c(-c2cnc(NC3CCCCC3)c(C#N)c2)s1 [Example 58, 5-(5-Cyano-6-(cyclohexylamino)pyridin-3-yl)-4-(4-fluoropiperidine-1-carbonyl)-N-(2-hydroxy-2-methylpropyl)thiazole-2-carboxamide]
Kd [1]: 170 nM | IC50 (full-length human RORγt; Conditions A): 770 nM | inhibition at 6 µM (full-length human RORγt; Conditions A): 93%

CC(C)(O)CNC(=O)c1nc(C(=O)N2CCC(F)CC2)c(-c2cnc(NC3CCCCC3)cc2C(F)F)s1 [Example 14, 5-(6-(Cyclohexylamino)-4-(difluoromethyl)pyridin-3-yl)-4-(4-fluoropiperidine-1-carbonyl)-N-(2-hydroxy-2-methylpropyl)thiazole-2-carboxamide]
Kd [1]: 33 nM | IC50 (full-length human RORγt; Conditions A): 76 nM | inhibition at 6 µM (full-length human RORγt; Conditions A): 105%

CC(C)(O)CNC(=O)c1nc(C(=O)N2CCC(F)CC2)c(-c2cnc(NCCC(F)(F)F)c(C(F)(F)F)c2)s1 [Example 7, 4-(4-Fluoropiperidine-1-carbonyl)-N-(2-hydroxy-2-methylpropyl)-5-(5-(trifluoromethyl)-6-((3,3,3-trifluoropropyl)amino)pyridin-3-yl)thiazole-2-carboxamide]
Kd [1]: 230 nM | IC50 (full-length human RORγt; Conditions A): 620 nM | inhibition at 6 µM (full-length human RORγt; Conditions A): 80%

Cc1c(-c2sc(C(=O)NCC(C)(C)O)nc2C(=O)N2CCC(F)CC2)cnc(NC2CCCCC2)c1C#N [Example 60, 5-(5-Cyano-6-(cyclohexylamino)-4-methylpyridin-3-yl)-4-(4-fluoropiperidine-1-carbonyl)-N-(2-hydroxy-2-methylpropyl)thiazole-2-carboxamide]
Kd [1]: 160 nM | IC50 (full-length human RORγt; Conditions A): 430 nM | inhibition at 6 µM (full-length human RORγt; Conditions A): 90.3%

CC(C)(O)CNC(=O)c1nc(C(=O)N2CCC(F)CC2)c(-c2cnc(NC3CCCCC3)c(OC(F)F)c2)s1 [Example 62, 5-(6-(Cyclohexylamino)-5-(difluoromethoxy)pyridin-3-yl)-4-(4-fluoropiperidine-1-carbonyl)-N-(2-hydroxy-2-methylpropyl)thiazole-2-carboxamide]
Kd [1]: 12 nM | IC50 (full-length human RORγt; Conditions A): 160 nM | inhibition at 6 µM (full-length human RORγt; Conditions A): 98%

CC(C)(O)CNC(=O)c1nc(C(=O)N2CCC(F)CC2)c(-c2cnc(NC3CCCCC3)c(C(F)(F)F)c2)s1 [Example 1, 5-(6-(Cyclohexylamino)-5-(trifluoromethyl)pyridin-3-yl)-4-(4-fluoropiperidine-1-carbonyl)-N-(2-hydroxy-2-methylpropyl)thiazole-2-carboxamide]
Kd [1]: 35 nM | RORγt (FL) Reporter Assay A, % inhibition (value marked **) (full-length human RORγt; Conditions A): 100** % | IC50 (full-length human RORγt; Conditions A): 79 nM

CCc1cc(NC2CCCCC2)ncc1-c1sc(C(=O)NCC(C)(C)O)nc1C(=O)N1CCC(F)CC1 [Example 70, 5-(6-(cyclohexylamino)-4-ethylpyridin-3-yl)-4-(4-fluoropiperidine-1-carbonyl)-N-(2-hydroxy-2-methylpropyl)thiazole-2-carboxamide]
Kd [1]: 36 nM | IC50 (full-length human RORγt; Conditions A): 130 nM | inhibition at 6 µM (full-length human RORγt; Conditions A): 108%

CCOc1cc(NC2CCCCC2)ncc1-c1sc(C(=O)NCC(C)(C)O)nc1C(=O)N1CCC(F)CC1 [Example 69, 5-(6-(Cyclohexylamino)-4-ethoxypyridin-3-yl)-4-(4-fluoropiperidine-1-carbonyl)-N-(2-hydroxy-2-methylpropyl)thiazole-2-carboxamide]
Kd [1]: 170 nM | IC50 (full-length human RORγt; Conditions A): 630 nM | inhibition at 6 µM (full-length human RORγt; Conditions A): 85%
